The values that follow are results of earlier work, collected in article PMC12238723, “Phase I Clinical Trial of CVL218, a Novel PARP1/2 Inhibitor, in Patients with Advanced Solid Tumors” (MedComm, 2025).

In data set [1] the test system is patients. The conditions noted are these: cited from earlier work.
On the set-up of data set [2]: method as in PMID 37806255. The conditions noted are these: recommended dose of 300 mg BID; cited from earlier work.

As for `O=C(c1cc(Cc2n[nH]c(=O)c3ccccc23)ccc1F)N1CCN(C(=O)C2CC2)CC1` [olaparib, Olaparib], in data set [1], the “incidence of MDS/AML” value is “approximately 1%”, the incidence of anemia is given as 21 to 46%, the “increased risk of MDS/AML compared with placebo” value is 158% and the “occurrence of grade ≥3 anemia” value is given as 5.1–22%. In addition, in data set [1], the “overall incidence of grade ≥3 AEs” value was 36–40%, the “rate of dose reduction due to AEs” value is listed as 25–29% and the treatment discontinuation rates is 6–17%. In addition, in data set [1] (comparison value, no reference given), the “grade ≥3 gastrointestinal AEs” value is 4.3%. The “median Tmax” value in data set [2] is 1.5 h.
In the case of `NC(=O)c1cccc2cn(-c3ccc([C@@H]4CCCNC4)cc3)nc12` [niraparib], in data set [1], the “grade ≥3 anemia incidence” value is 14.7–22.5% and the “increased risk of MDS/AML compared with placebo” value is 48%.
